# Assays:
# Format in all cases: in vivo
# [1] = system: posumbu knotweed; test: Test Example 3: herbicidal effects in soil treatment; conditions: dose 3.2 g/a
# Outline: (§1)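 Seeds were sown in sterilized diluvial soil and covered with about 1.5 cm of soil. Compounds, formulated as emulsifiable concentrates and diluted with water, were sprayed evenly over the soil surface at set doses in g/a. Herbicidal effect was scored on a rating scale three weeks later.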
# [2] = system: Italian ryegrass; test: as above; conditions: dose 3.2 g/a
# Outline: as §1
# [3] = system: common ragweed; test: as above; conditions: dose 3.2 g/a
# Outline: as §1
# [4] = system: water foxtail; test: as above; conditions: dose 3.2 g/a
# Outline: as §1
# [5] = system: barnyardgrass; test: as above; conditions: dose 3.2 g/a
# Outline: as §1
# [6] = system: common chickweed; test: as above; conditions: dose 3.2 g/a
# Outline: as §1
# [7] = system: common lambsquater; test: as above; conditions: dose 3.2 g/a
# Outline: as §1
# [8] = system: large crabgrass; test: as above; conditions: dose 3.2 g/a
# Outline: as §1
# [9] = system: beadstraw; test: as above; conditions: dose 3.2 g/a
# Outline: as §1
# [10] = system: redroot pigweed; test: as above; conditions: dose 3.2 g/a
# Outline: as §1
# [11] = system: velvetleaf; test: as above; conditions: dose 3.2 g/a
# Outline: as §1
# [12] = system: giant foxtail; test: as above; conditions: dose 3.2 g/a
# Outline: as §1
# [13] = system: bulrush; test: Test Example 2: herbicidal effects during the vegetation period under submerged conditions; conditions: treatment during the vegetation period under submerged conditions; dose 2.52 g/a
# Outline: (§2)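 Barnyardgrass, bulrush and ducksalad were co-sown in alluvial soil flooded to 4 cm and grown in a greenhouse at 25 to 30° C. At the 1- or 2-leaf stage, water-diluted emulsifiable concentrates went onto the water surface at set doses (g/a). Herbicidal effect was scored three weeks later on a graded scale.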
# [14] = system: barnyardgrass; test: as above; conditions: treatment during the vegetation period under submerged conditions; dose 2.52 g/a
# Outline: as §2
# [15] = system: ducksalad; test: as above; conditions: treatment during the vegetation period under submerged conditions; dose 2.52 g/a
# Outline: as §2
# [16] = system: transplanted rice; test: Test Example 1: preemergence treatment under submerged conditions, effect on crop; conditions: dose 2.52 g/a
# Outline: (§3)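 Weed seeds and 2.5-leaf rice seedlings shared each flooded cup of alluvial soil. Dosing, expressed as g per are, was by pouring water-diluted emulsifiable concentrate onto the surface on sowing day. Mortality was graded 0 to 5 after three weeks' growth.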
# [17] = system: posumbu knotweed; test: Test Example 4: herbicidal effect in foliage treatment; conditions: dose 3.2 g/a, three weeks after application
# Outline: (§4)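 Doses are given in grams per are of applied compound, sprayed as water-diluted emulsifiable concentrate onto foliage of 14-day-old plants grown at 25 to 30° C. Herbicidal activity was assessed visually on a rating scale after three weeks.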
# [18] = system: Italian ryegrass; test: as above; conditions: dose 3.2 g/a, three weeks after application
# Outline: as §4
# [19] = system: common ragweed; test: as above; conditions: dose 3.2 g/a, three weeks after application
# Outline: as §4
# [20] = system: water foxtail; test: as above; conditions: dose 3.2 g/a, three weeks after application
# Outline: as §4
# [21] = system: barnyardgrass; test: as above; conditions: dose 3.2 g/a, three weeks after application
# Outline: as §4
# [22] = system: common chickweed; test: as above; conditions: dose 3.2 g/a, three weeks after application
# Outline: as §4
# [23] = system: common lambsquater; test: as above; conditions: dose 3.2 g/a, three weeks after application
# Outline: as §4
# [24] = system: large crabgrass; test: as above; conditions: dose 3.2 g/a, three weeks after application
# Outline: as §4
# [25] = system: beadstraw; test: as above; conditions: dose 3.2 g/a, three weeks after application
# Outline: as §4
# [26] = system: redroot pigweed; test: as above; conditions: dose 3.2 g/a, three weeks after application
# Outline: as §4
# [27] = system: velvetleaf; test: as above; conditions: dose 3.2 g/a, three weeks after application
# Outline: as §4
# [28] = system: giant foxtail; test: as above; conditions: dose 3.2 g/a, three weeks after application
# Outline: as §4
# [29] = system: bulrush; test: Test Example 1: herbicidal effects in preemergence treatment under submerged conditions; conditions: dose 2.52 g/a
# Outline: as §3
# [30] = system: barnyardgrass; test: as above; conditions: dose 2.52 g/a
# Outline: as §3
# [31] = system: ducksalad; test: as above; conditions: dose 2.52 g/a
# Outline: as §3
structure (smiles),measurement,setting,value
CCC(=O)N(c1ccccc1CN1COC(C)(CC(F)(F)F)CC1=O)S(=O)(=O)C(F)(F)F (centres unmarked) [II-52],"M: posumbu knotweed, herbicidal effect (evaluation scale 0-5)",[1],5 (mortality of 90% or above (nearly complete death))
same,"H: Italian ryegrass, herbicidal effect (evaluation scale 0-5)",[2],5 (mortality of 90% or above (nearly complete death))
same,"J: common ragweed, herbicidal effect (evaluation scale 0-5)",[3],5 (mortality of 90% or above (nearly complete death))
same,"G: water foxtail, herbicidal effect (evaluation scale 0-5)",[4],5 (mortality of 90% or above (nearly complete death))
same,"A: barnyardgrass, herbicidal effect (evaluation scale 0-5)",[5],5 (mortality of 90% or above (nearly complete death))
same,"N: common chickweed, herbicidal effect (evaluation scale 0-5)",[6],5 (mortality of 90% or above (nearly complete death))
same,"L: common lambsquater, herbicidal effect (evaluation scale 0-5)",[7],4 (mortality of at least 70% and less than 90%)
same,"D: large crabgrass, herbicidal effect (evaluation scale 0-5)",[8],5 (mortality of 90% or above (nearly complete death))
same,"O: beadstraw, herbicidal effect (evaluation scale 0-5)",[9],0 (mortality of less than 5% (almost ineffective))
same,"K: redroot pigweed, herbicidal effect (evaluation scale 0-5)",[10],1 (mortality of at least 5% and less than 20%)
same,"I: velvetleaf, herbicidal effect (evaluation scale 0-5)",[11],5 (mortality of 90% or above (nearly complete death))
same,"E: giant foxtail, herbicidal effect (evaluation scale 0-5)",[12],5 (mortality of 90% or above (nearly complete death))
same,"B: bulrush, herbicidal effect (evaluation scale 0-5)",[13],5 (mortality of 90% or above (nearly complete death))
same,"A: barnyardgrass, herbicidal effect (evaluation scale 0-5)",[14],5 (mortality of 90% or above (nearly complete death))
same,"C: ducksalad, herbicidal effect (evaluation scale 0-5)",[15],5 (mortality of 90% or above (nearly complete death))
same,"a: transplanted rice, effect on crop (evaluation scale 0-5)",[16],0 (mortality of less than 5% (almost ineffective))
same,"M: posumbu knotweed, herbicidal effect",[17],1 (mortality of at least 5% and less than 20%)
same,"H: Italian ryegrass, herbicidal effect",[18],4 (mortality of at least 70% and less than 90%)
same,"J: common ragweed, herbicidal effect",[19],3 (mortality of at least 40% and less than 70%)
same,"G: water foxtail, herbicidal effect",[20],5 (mortality of 90% or above (nearly complete death))
same,"A: barnyardgrass, herbicidal effect",[21],5 (mortality of 90% or above (nearly complete death))
same,"N: common chickweed, herbicidal effect",[22],4 (mortality of at least 70% and less than 90%)
same,"L: common lambsquater, herbicidal effect",[23],4 (mortality of at least 70% and less than 90%)
same,"D: large crabgrass, herbicidal effect",[24],4 (mortality of at least 70% and less than 90%)
same,"O: beadstraw, herbicidal effect",[25],5 (mortality of 90% or above (nearly complete death))
same,"K: redroot pigweed, herbicidal effect",[26],0 (mortality of less than 5% (almost ineffective))
same,"I: velvetleaf, herbicidal effect",[27],3 (mortality of at least 40% and less than 70%)
same,"E: giant foxtail, herbicidal effect",[28],5 (mortality of 90% or above (nearly complete death))
same,"B: bulrush, herbicidal effect (evaluation scale 0-5)",[29],5 (mortality of 90% or above (nearly complete death))
same,"A: barnyardgrass, herbicidal effect (evaluation scale 0-5)",[30],5 (mortality of 90% or above (nearly complete death))
same,"C: ducksalad, herbicidal effect (evaluation scale 0-5)",[31],5 (mortality of 90% or above (nearly complete death))
COCC1(C)CC(=O)N(Cc2ccccc2N(C(=O)OCC(C)C)S(=O)(=O)C(F)(F)F)CO1 (centres unmarked) [II-56],"M: posumbu knotweed, herbicidal effect (evaluation scale 0-5)",[1],3 (mortality of at least 40% and less than 70%)
same,"H: Italian ryegrass, herbicidal effect (evaluation scale 0-5)",[2],5 (mortality of 90% or above (nearly complete death))
same,"J: common ragweed, herbicidal effect (evaluation scale 0-5)",[3],4 (mortality of at least 70% and less than 90%)
same,"G: water foxtail, herbicidal effect (evaluation scale 0-5)",[4],5 (mortality of 90% or above (nearly complete death))
same,"A: barnyardgrass, herbicidal effect (evaluation scale 0-5)",[5],5 (mortality of 90% or above (nearly complete death))
same,"N: common chickweed, herbicidal effect (evaluation scale 0-5)",[6],5 (mortality of 90% or above (nearly complete death))
same,"L: common lambsquater, herbicidal effect (evaluation scale 0-5)",[7],3 (mortality of at least 40% and less than 70%)
same,"D: large crabgrass, herbicidal effect (evaluation scale 0-5)",[8],4 (mortality of at least 70% and less than 90%)
same,"O: beadstraw, herbicidal effect (evaluation scale 0-5)",[9],0 (mortality of less than 5% (almost ineffective))
same,"K: redroot pigweed, herbicidal effect (evaluation scale 0-5)",[10],2 (mortality of at least 20% and less than 40%)
same,"I: velvetleaf, herbicidal effect (evaluation scale 0-5)",[11],5 (mortality of 90% or above (nearly complete death))
same,"E: giant foxtail, herbicidal effect (evaluation scale 0-5)",[12],5 (mortality of 90% or above (nearly complete death))
same,"B: bulrush, herbicidal effect (evaluation scale 0-5)",[13],5 (mortality of 90% or above (nearly complete death))
same,"A: barnyardgrass, herbicidal effect (evaluation scale 0-5)",[14],5 (mortality of 90% or above (nearly complete death))
same,"C: ducksalad, herbicidal effect (evaluation scale 0-5)",[15],5 (mortality of 90% or above (nearly complete death))
same,"a: transplanted rice, effect on crop (evaluation scale 0-5)",[16],0 (mortality of less than 5% (almost ineffective))
same,"M: posumbu knotweed, herbicidal effect",[17],0 (mortality of less than 5% (almost ineffective))
same,"H: Italian ryegrass, herbicidal effect",[18],3 (mortality of at least 40% and less than 70%)
same,"J: common ragweed, herbicidal effect",[19],4 (mortality of at least 70% and less than 90%)
same,"G: water foxtail, herbicidal effect",[20],5 (mortality of 90% or above (nearly complete death))
same,"A: barnyardgrass, herbicidal effect",[21],5 (mortality of 90% or above (nearly complete death))
same,"N: common chickweed, herbicidal effect",[22],4 (mortality of at least 70% and less than 90%)
same,"L: common lambsquater, herbicidal effect",[23],3 (mortality of at least 40% and less than 70%)
same,"D: large crabgrass, herbicidal effect",[24],0 (mortality of less than 5% (almost ineffective))
same,"O: beadstraw, herbicidal effect",[25],3 (mortality of at least 40% and less than 70%)
same,"K: redroot pigweed, herbicidal effect",[26],2 (mortality of at least 20% and less than 40%)
same,"I: velvetleaf, herbicidal effect",[27],5 (mortality of 90% or above (nearly complete death))
same,"E: giant foxtail, herbicidal effect",[28],4 (mortality of at least 70% and less than 90%)
same,"B: bulrush, herbicidal effect (evaluation scale 0-5)",[29],5 (mortality of 90% or above (nearly complete death))
same,"A: barnyardgrass, herbicidal effect (evaluation scale 0-5)",[30],5 (mortality of 90% or above (nearly complete death))
same,"C: ducksalad, herbicidal effect (evaluation scale 0-5)",[31],5 (mortality of 90% or above (nearly complete death))

# From patent publication US20120029187A1, “HALOALKYLSULFONANILIDE DERIVATIVE” (Nissan Chemical Industries, Ltd., priority 2009, published 2012)
